Assay results: ChEMBL document CHEMBL4680194, “Synthesis and biological evaluation of 1,2,4-triazole derivatives as potential neuroprotectant against ischemic brain injury” (Eur J Med Chem, 2020)
Activity calls are given as the source filed them. No cut-off for these calls is given here.

Key:
[1] = Toxicity in […] assessed as body weight at 400 mg/kg, ip measured on day 5 (reference value: 24.4 to 28.4 g); assay type: organism-based; details: in vivo, 120 h, time 5 day
[2] = Cmax in Sprague-Dawley rat at 20 mg/kg, po measured upto 24 hrs by LC-MS/MS analysis; assay type: ADME, organism-based; design: route oral, dose 20 mg/kg, time <=24; details: in vivo
PC-12 [3] = assay: Reversal of LY294002-induced Nrf2 inhibition in rat PC-12 cells at 1.25 to 5 uM incubated for 1 hr followed by LY294002 stimulation and measured after 24 hrs by Western blot analysis; assay type: functional, cell-based; details: dose 1.25-5 µM, time 25.0 hrs
[4] = Tmax in Sprague-Dawley rat at 20 mg/kg, po measured upto 24 hrs by LC-MS/MS analysis; assay type: ADME, organism-based; details: in vivo
[5] = molecular target: T1, Nuclear factor erythroid 2-related factor 2 (Rattus norvegicus) (UniProt O54968); assay: Induction of Nrf2 nuclear translocation in rat PC-12 cells assessed as SNP-induced SOD level incubated for 1 hr followed by SNP stimulation and measured after 24 hrs; assay type: cell-based; details: dose 2.5-10 µM, time 25.0 hrs
T1 sequence (whole entry): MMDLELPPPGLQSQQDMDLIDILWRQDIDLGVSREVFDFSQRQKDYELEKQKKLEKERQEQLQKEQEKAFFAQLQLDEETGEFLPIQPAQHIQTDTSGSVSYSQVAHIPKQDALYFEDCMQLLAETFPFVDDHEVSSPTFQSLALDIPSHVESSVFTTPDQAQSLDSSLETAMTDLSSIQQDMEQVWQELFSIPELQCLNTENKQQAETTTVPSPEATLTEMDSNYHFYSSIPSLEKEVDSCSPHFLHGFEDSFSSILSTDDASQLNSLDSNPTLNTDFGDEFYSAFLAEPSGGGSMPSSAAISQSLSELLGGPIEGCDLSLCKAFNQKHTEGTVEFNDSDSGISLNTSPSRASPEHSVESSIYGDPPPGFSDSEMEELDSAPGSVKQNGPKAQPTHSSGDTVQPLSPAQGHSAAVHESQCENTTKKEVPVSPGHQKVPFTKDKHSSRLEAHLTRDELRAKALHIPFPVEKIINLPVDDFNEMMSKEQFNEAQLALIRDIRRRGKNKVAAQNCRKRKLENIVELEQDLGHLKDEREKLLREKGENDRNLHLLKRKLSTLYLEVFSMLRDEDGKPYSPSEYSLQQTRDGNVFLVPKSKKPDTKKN

[6] = molecular target: T1, Nuclear factor erythroid 2-related factor 2 (Rattus norvegicus); assay: Induction of Nrf2 nuclear translocation in rat PC-12 cells assessed as H2O2-induced GSH level at 2.5 uM incubated for 1 hr followed by H2O2 stimulation and measured after 5 hrs (reference value: 65.52 +/- 1.44 nM/mg); assay type: cell-based; details: time 6.0 hrs
Rattus norvegicus [7] = assay: Neuroprotective activity in Sprague-Dawley rat model of middle cerebral artery occlusion-induced ischemic injury assessed as increase in SOD level at 3 to 30 mg/kg, ip administered TID and measured after 24 hrs by ELISA; assay type: functional, organism-based; details: dose 3-30 mg/kg
[8] = molecular target: T1, Nuclear factor erythroid 2-related factor 2 (Rattus norvegicus); assay: Induction of Nrf2 nuclear translocation in rat PC-12 cells assessed as H2O2-induced SOD level at 2.5 uM incubated for 1 hr followed by H2O2 stimulation and measured after 5 hrs (reference value: 29.69 +/- 1.65 U/mg); assay type: cell-based; details: time 6.0 hrs
[9] = molecular target: T1, Nuclear factor erythroid 2-related factor 2 (Rattus norvegicus); assay: Induction of Nrf2 nuclear translocation in rat PC-12 cells assessed as SNP-induced SOD level at 10 uM incubated for 1 hr followed by SNP stimulation and measured after 24 hrs (reference value: 23.74 +/- 2.02 U/mg); assay type: cell-based; details: time 25.0 hrs
Rattus norvegicus [10] = assay: Neuroprotective activity in Sprague-Dawley rat model of middle cerebral artery occlusion-induced ischemic injury assessed as infarction volume at 10 mg/kg, ip administered TID and measured after 6 hrs by TTC staining based assay (reference value: 28.67 +/- 2.90 %); assay type: functional
Rattus norvegicus [11] = assay: Neuroprotective activity in Sprague-Dawley rat model of middle cerebral artery occlusion-induced ischemic injury assessed as decrease in TNF-alpha level at 3 to 30 mg/kg, ip administered TID and measured after 24 hrs by ELISA; assay type: functional, organism-based; details: dose 3-30 mg/kg
PC-12 [12] = assay: Inhibition of SNP-induced mitochondrial membrane potential loss in rat PC-12 cells assessed as increase in red fluoresence at 2.5 to 10 uM incubated for 1 hr followed by SNP stimulation and measured after 24 hrs by JC-1 staining based fluorescence microscopy; assay type: functional, cell-based; details: dose 2.5-10 µM, time 25.0 hrs
PC-12 [13] = assay: Antioxidant activity in rat PC-12 cells assessed as reduction in H2O2-induced ROS level incubated for 1 hr followed by H2O2 stimulation and measured after 5 hrs by DCFH-DA staining based fluorescence microscopy; assay type: functional, cell-based; details: dose 2.5-10 µM, time 6.0 hrs
PC-12 [14] = assay: Cytoprotective activity against H2O2-induced cell death in rat PC12 cells assessed as increase in cell viability at 10 uM incubated for 1 hr followed by H2O2 stimulation and measured after 5 hrs in presence of LY294002 by MTT assay; assay type: functional, cell-based; details: time 6.0 hrs
[15] = molecular target: T1, Nuclear factor erythroid 2-related factor 2 (Rattus norvegicus); assay: Induction of Nrf2 nuclear translocation in rat PC-12 cells assessed as SNP-induced GSH-px level incubated for 1 hr followed by SNP stimulation and measured after 24 hrs; assay type: cell-based; details: dose 2.5-10 µM, time 25.0 hrs
[16] = Metal chelating activity of the compound assessed as Fe2+-compound complex formation incubated for 10 mins in presence of ferrozine by UV-visible spectrophotometry; details: read-out: IC50
[17] = AUC (0 to infinity) in Sprague-Dawley rat at 20 mg/kg, po measured upto 24 hrs by LC-MS/MS analysis; assay type: ADME, organism-based; design: route oral, dose 20 mg/kg, time <=24; details: in vivo
PC-12 [18] = assay: Effect on Nrf2 in rat PC-12 cells at 1.25 to 5 uM incubated for 24 hrs by Western blot analysis; assay type: functional, cell-based; details: dose 1.25-5 µM
[19] = Tmax in Sprague-Dawley rat at 2 mg/kg, iv measured upto 24 hrs by LC-MS/MS analysis; assay type: ADME, organism-based; details: in vivo
[20] = molecular target: T1, Nuclear factor erythroid 2-related factor 2 (Rattus norvegicus); assay: Induction of Nrf2 nuclear translocation in rat PC-12 cells assessed as increase in nuclear Nrf2 level at 1.25 to 5 uM incubated for 24 hrs by Western blot analysis; assay type: cell-based; details: dose 1.25-5 µM
[21] = Cmax in Sprague-Dawley rat at 2 mg/kg, iv measured upto 24 hrs by LC-MS/MS analysis; assay type: ADME, organism-based; design: route intravenous, dose 2 mg/kg, time <=24; details: in vivo
[22] = molecular target: T1, Nuclear factor erythroid 2-related factor 2 (Rattus norvegicus); assay: Induction of Nrf2 nuclear translocation in rat PC-12 cells assessed as H2O2-induced GSH-px level at 2.5 uM incubated for 1 hr followed by H2O2 stimulation and measured after 5 hrs (reference value: 45.92 +/- 3.64 mU/mg); assay type: cell-based; details: time 6.0 hrs
[23] = Half life in Sprague-Dawley rat at 2 mg/kg, iv measured upto 24 hrs by LC-MS/MS analysis; assay type: ADME, organism-based; details: in vivo
[24] = Toxicity in […] assessed as body weight at 400 mg/kg, ip measured on day 3 (reference value: 24.4 to 28.4 g); assay type: organism-based; details: in vivo, 72 h, time 3 day
PC-12 [25] = assay: Inhibition of H2O2-induced apoptosis in rat PC-12 cells assessed as reduction in condensed nuclei incubated for 1 hr followed by H2O2 stimulation and measured after 5 hrs by Hoechst 33258 staining based fluorescence microscopy; assay type: functional, cell-based; details: dose 2.5-10 µM, time 6.0 hrs
[26] = Toxicity in […] assessed as body weight at 400 mg/kg, ip measured on day 1 (reference value: 24.4 to 28.4 g); assay type: organism-based; details: in vivo, 24 h, time 1 day

Question: For `COc1ccc(-c2nc(-c3ccccc3O)n(-c3ccc(S(N)(=O)=O)cc3)n2)c(O)c1`, which Activity [1] is on record?
Answer: The Activity was 24.9 g.

Question: What about the Cmax [2] of the same molecule?
Answer: The Cmax was 2030 ng/mL.

Question: And the Activity (PC-12 [3])?
Answer: The Activity was “Active”.

Question: What about the Tmax [4] of the same molecule?
Answer: The Tmax was 2 h.

Question: What about the Activity [5] of the same molecule?
Answer: The Activity was “Dose-dependent effect”.

Question: What about the Activity [6] of the same molecule?
Answer: The Activity was 70.4 nM/mg.

Question: And the Activity (Rattus norvegicus [7])?
Answer: Its Activity is “Active”.

Question: And the Activity [8]?
Answer: The Activity was 36.3 U/mg.

Question: What about the Activity [9] of the same molecule?
Answer: The Activity was 39.1 U/mg.

Question: And the Activity (Rattus norvegicus [10])?
Answer: The Activity was 12.59%.

Question: What about the Activity (Rattus norvegicus [11]) of the same molecule?
Answer: The Activity was “Active”.

Question: What about the inhibition (PC-12 [12]) of the same molecule?
Answer: Its inhibition is “Active”.

Question: What about the inhibition (PC-12 [13]) of the same molecule?
Answer: Its inhibition is “Dose-dependent effect”.

Question: What about the Activity (PC-12 [14]) of the same molecule?
Answer: The Activity was “inactive”.

Question: What about the Activity [15] of the same molecule?
Answer: Its Activity is “Dose-dependent effect”.

Question: And the IC50 [16]?
Answer: Its IC50 is 36.3 µM.

Question: What about the AUC(0-inf) [17] of the same molecule?
Answer: The AUC(0-inf) was 14200 ng·h/mL.

Question: What about the Activity (PC-12 [18]) of the same molecule?
Answer: The Activity was “inactive”.

Question: And the Tmax [19]?
Answer: The Tmax was 4.98 min.

Question: And the Activity [20]?
Answer: Its Activity is “Active”.

Question: What about the Cmax [21] of the same molecule?
Answer: The Cmax was 2750 ng/mL.

Question: And the Activity [22]?
Answer: The Activity was 51 mU/mg.

Question: And the half-life [23]?
Answer: Its half-life is 5.11 h.

Question: What about the Activity [24] of the same molecule?
Answer: Its Activity is 24.5 g.

Question: And the inhibition (PC-12 [25])?
Answer: The inhibition was “Dose-dependent effect”.

Question: What about the Activity [26] of the same molecule?
Answer: The Activity was 24.3 g.
